One test addresses T1, BRAF V600E (Homo sapiens, UniProt P15056, V600E).
T1 construct: expressed in transfected cells
The test is described as follows: Cellular assay of target protein degradation, T-Rex 293 cells stably transfected with HA-BRAF_V600E (HA immunofluorescence, high content imaging). The format is cell-based. Conditions: T-Rex 293 HA-BRAF V600E; for DC50: half maximal degradation, read-out: BRaf V600E DC50; for Dmax: maximum degradation observed. The protocol:
Protocol for a cellular assay of target protein degradation (T-Rex 293 cells). T-Rex 293 cells were purchased from Invitrogen (#R71007), and stably transfected with a pcDNA4/TO_HA-BRAF_V600E construct, using 400 ug Zeocin for selection. V600e cells are plated in Dulbecco's Modified Eagle Medium (DMEM; Gibco #11965118) containing 10% fetal bovine serum (FBS; Gibco #16000044) and 1 ng/mL doxycycline (Selleckchem #4163) at a density of 5,000 cells/well in 50 μl on poly-D-lysine (PDL) coated, black clear bottom 96-well plates (Corning #354640) and incubated for 24 hours at 37° C. with 5% C02. The following day 50 ul of tested compound was added at 2x concentration in DMEM with a final concentration ranging from 1 μM to 0.1 nM in 0.1% dimethylsulfoxide (DMSO), and incubated for 24 hours at 37° C. with 5% CO2. At the end of the experimental treatment, the media was flicked off and cells washed once with phosphate-buffered saline (PBS)++ (PBS with CaCl and MgCl) and gently replacing with 200 μl PBS++ per well. The PBS++ was removed and 50 uL 4% paraformaldehyde (PFA; EMS #15710) in PBS++ was added, and incubate at room temperature for 15 minutes. Cells were washed once with PBS++ and 50 uL 0.1% Triton X-100 (Fisher #BP151-500) in PBS++ was added. Plate was incubate for 5 minutes at room temperature. Cells were was once with PBS++. Cells were blocked with 100 uL Licor blocking buffer (Licor #927-50000) for 1 hour at room temperature. Next, 50 uL of HA antibody (CST #3724) at 1:1000 in Licor blocking buffer was added, and the plate incubate overnight at 4° C. The plates were parafilmed to prevent evaporation. Plate was washed three times with 200 uL PBS++. Fifty microliters of HCS secondary antibody solution [1:1000 Hoechst (Invitrogen #H3570), 1:1000 phalloidin (Invitrogen #A22287) and 1:5000 Alexa fluor (Invitrogen #A11008)] was added and incubated for 1 hour. Plate was wash three times with 200 uL PBS++, and imaged on a high content reader (ImageXpress Micro XLS, Molecular Devices).
(§1) The concentration of exemplary compound that leads to half maximal degradation (DC50) as well as the maximum degradation observed (Dmax, conventionally expressed as a percentage of control), which are below in Table 2 for the exemplary compounds of Table 1.

In the next test the target is T2, BRAF G466V (Homo sapiens, UniProt P15056, G466V).
T2 construct: expressed in transfected cells
T2 sequence (P15056 whole entry G466V): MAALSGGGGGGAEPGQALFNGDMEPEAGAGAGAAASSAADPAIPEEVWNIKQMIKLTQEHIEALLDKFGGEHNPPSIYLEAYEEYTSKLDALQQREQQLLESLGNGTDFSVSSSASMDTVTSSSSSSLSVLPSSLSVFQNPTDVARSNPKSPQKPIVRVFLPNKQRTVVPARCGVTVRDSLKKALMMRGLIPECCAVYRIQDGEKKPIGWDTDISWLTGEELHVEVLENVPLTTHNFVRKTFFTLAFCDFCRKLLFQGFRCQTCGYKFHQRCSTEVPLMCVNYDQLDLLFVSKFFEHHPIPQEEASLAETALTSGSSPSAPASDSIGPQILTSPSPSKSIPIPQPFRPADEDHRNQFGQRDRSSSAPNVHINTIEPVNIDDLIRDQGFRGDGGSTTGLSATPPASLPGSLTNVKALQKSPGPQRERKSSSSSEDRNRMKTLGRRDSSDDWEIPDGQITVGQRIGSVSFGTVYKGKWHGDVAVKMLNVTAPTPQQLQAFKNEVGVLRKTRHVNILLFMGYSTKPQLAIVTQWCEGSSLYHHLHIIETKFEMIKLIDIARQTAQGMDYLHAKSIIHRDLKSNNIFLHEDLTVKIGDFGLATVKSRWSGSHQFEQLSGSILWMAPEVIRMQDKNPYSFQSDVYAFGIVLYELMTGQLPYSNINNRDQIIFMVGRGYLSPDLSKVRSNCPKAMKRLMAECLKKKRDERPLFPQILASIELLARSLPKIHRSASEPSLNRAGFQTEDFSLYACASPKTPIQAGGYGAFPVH
The test can be described thus: Cellular assay of target protein degradation, T-Rex 293 cells stably transfected with HA-BRAF G466V (HA immunofluorescence, high content imaging). The following applies: T-Rex 293 HA-BRAF G466V; for DC50: half maximal degradation, read-out: BRaf G466V DC50; for Dmax: maximum degradation observed. Format: cell-based. The protocol: Protocol for a cellular assay of target protein degradation (T-Rex 293 cells). T-Rex 293 cells were purchased from Invitrogen (#R71007), and stably transfected with a pcDNA4/TO_HA-BRAF G466V construct, using 400 ug Zeocin for selection. G466V cells are plated in Dulbecco's Modified Eagle Medium (DMEM; Gibco #11965118) containing 10% fetal bovine serum (FBS; Gibco #16000044) and 0.75 ng/mL doxycycline (Selleckchem #4163) at a density of 5,000 cells/well in 50 μl on poly-D-lysine (PDL) coated, black clear bottom 96-well plates (Corning #354640) and incubated for 24 hours at 37° C. with 5% CO2. The following day 50 ul of tested compound was added at 2x concentration in DMEM with a final concentration ranging from 30 nM to 3 pM in 0.1% dimethylsulfoxide (DMSO), and incubated for 24 hours at 37° C. with 5% CO2. At the end of the experimental treatment, the media was flicked off and cells washed once with phosphate-buffered saline (PBS)++ (PBS with CaCl and MgCl) and gently replacing with 200 μl PBS++ per well. The PBS++ was removed and 50 uL 4% paraformaldehyde (PFA; EMS #15710) in PBS++ was added, and incubate at room temperature for 15 minutes. Cells were washed once with PBS++ and 50 uL 0.1% Triton X-100 (Fisher #BP151-500) in PBS++ was added. Plate was incubate for 5 minutes at room temperature. Cells were was once with PBS++. Cells were blocked with 100 uL Licor blocking buffer (Licor #927-50000) for 1 hour at room temperature. Next, 50 uL of HA antibody (CST #3724) at 1:1000 in Licor blocking buffer was added, and the plate incubate overnight at 4° C. The plates were parafilmed to prevent evaporation. Plate was washed three times with 200 uL PBS++. Fifty microliters of HCS secondary antibody solution [1:1000 Hoechst (Invitrogen #H3570), 1:1000 phalloidin (Invitrogen #A22287) and 1:5000 Alexa fluor (Invitrogen #A11008)] was added and incubated for 1 hour. Plate was wash three times with 200 uL PBS++, and imaged on a high content reader (ImageXpress Micro XLS, Molecular Devices).
as §1

Each structure is given as a SMILES string.

T1 sequence (P15056 whole entry V600E): as the sequence (P15056 whole entry G466V) above, with V466G, V600E counted along it

The term DC50 denotes the midpoint of the concentration-degradation curve. One may read the Dmax as the greatest extent of degradation seen. A high value points to deep degradation. For the molecule `O=C1CCC(N2Cc3cc(N4CC5(CC(CN6CCc7cc(-c8cnc9[nH]cc(C(=O)c%10c(F)ccc(NS(=O)(=O)N%11CC[C@@H](F)C%11)c%10F)c9c8)ccc7C6)C5)C4)ccc3C2=O)C(=O)N1` (stereo partly drawn) [Compound 8, (3R)-N-(3-{5-[2-({2-[2-(2,6-dioxopiperidin-3-yl)-1-oxo-2,3-dihydro-1H-isoindol-5-yl]-2-azaspiro[3.3]heptan-6-yl}methyl)-1,2,3,4-tetrahydroisoquinolin-6-yl]-1H-pyrrolo[2,3-b]pyridine-3-carbonyl}-2,4-difluorophenyl)-3-fluoropyrrolidine-1-sulfonamide], the DC50 at BRAF V600E lay within 5 to 50 nM; at BRAF G466V, 10 to 30 nM. In addition, the Dmax at BRAF V600E and on BRAF G466V was 35 to 70% each time.
In the case of `O=C1CCC(N2Cc3cc(N4CCC5(CCN(CCc6ccc(-c7cnc8[nH]cc(C(=O)c9c(F)ccc(NS(=O)(=O)N%10CC[C@@H](F)C%10)c9F)c8c7)cc6)CC5)C4)ccc3C2=O)C(=O)N1` (stereo partly drawn) [Compound 10, (3R)-N-(3-{5-[4-(2-{2-[2-(2,6-dioxopiperidin-3-yl)-1-oxo-2,3-dihydro-1H-isoindol-5-yl]-2,8-diazaspiro[4.5]decan-8-yl}ethyl)phenyl]-1H-pyrrolo[2,3-b]pyridine-3-carbonyl}-2,4-difluorophenyl)-3-fluoropyrrolidine-1-sulfonamide], on BRAF V600E, the DC50 was in the range of 5 to 50 nM and the Dmax was in the range of 35 to 70%. For the same molecule, on BRAF G466V, the DC50 was less than 1 nM and the Dmax fell in the range of 35 to 70%.
Take `O=C1CCC(N2Cc3cc(N4CCC(CN5CCN(c6ccc(-c7cnc8[nH]cc(C(=O)c9c(F)ccc(NS(=O)(=O)N%10CC[C@@H](F)C%10)c9F)c8c7)cc6F)CC5)CC4)ccc3C2=O)C(=O)N1` (stereo partly drawn) [Compound 11, (3R)-N-[3-(5-{4-[4-({1-[2-(2,6-dioxopiperidin-3-yl)-1-oxo-2,3-dihydro-1H-isoindol-5-yl]piperidin-4-yl}methyl)piperazin-1-yl]-3-fluorophenyl}-1H-pyrrolo[2,3-b]pyridine-3-carbonyl)-2,4-difluorophenyl]-3-fluoropyrrolidine-1-sulfonamide]: at BRAF V600E, the DC50 is 5 to 50 nM and the Dmax was in the range of 35 to 70%. Moreover, on BRAF G466V, the DC50 is less than 1 nM and the Dmax lay in the range of 35 to 70%.
For `COc1cc(N2CC3(C2)CN(CC2CCN(c4ccc(-c5cnc6[nH]cc(C(=O)c7c(F)ccc(NS(=O)(=O)N8CC[C@@H](F)C8)c7F)c6c5)cc4)CC2)[C@H]3C)cc2c1C(=O)N(C1CCC(=O)NC1=O)C2` (stereo partly drawn) [Compound 12, (3R)-N-(3-{5-[4-(4-{[(1S)-6-[2-(2,6-dioxopiperidin-3-yl)-7-methoxy-1-oxo-2,3-dihydro-1H-isoindol-5-yl]-1-methyl-2,6-diazaspiro[3.3]heptan-2-yl]methyl}piperidin-1-yl)phenyl]-1H-pyrrolo[2,3-b]pyridine-3-carbonyl}-2,4-difluorophenyl)-3-fluoropyrrolidine-1-sulfonamide], the DC50 at BRAF V600E fell in the range of 5 to 50 nM; on BRAF G466V it was 1 to 10 nM. Besides, the Dmax at BRAF V600E is greater than 70%; at BRAF G466V, 35 to 70%.
In the same order, the values of `O=C1CCC(N2Cc3cc(O[C@H]4C[C@@]5(COCCN5CC5CCN(c6ccc(-c7cnc8[nH]cc(C(=O)c9c(F)ccc(NS(=O)(=O)N%10CC[C@@H](F)C%10)c9F)c8c7)cc6)CC5)C4)ccc3C2=O)C(=O)N1` (stereo partly drawn) [Compound 13, (3R)-N-(2,4-difluoro-3-{5-[4-(4-{[(2r,4r)-2-{[2-(2,6-dioxopiperidin-3-yl)-1-oxo-2,3-dihydro-1H-isoindol-5-yl]oxy}-8-oxa-5-azaspiro[3.5]nonan-5-yl]methyl}piperidin-1-yl)phenyl]-1H-pyrrolo[2,3-b]pyridin-3-carbonyl}phenyl)-3-fluoropyrrolidine-1-sulfonamide] are greater than 500 nM, 10 to 30 nM, greater than 70% and 35 to 70%.
Regarding `O=C1CCC(N2Cc3cc(O[C@H]4C[C@]5(COCCN5CC5CCN(c6ccc(-c7cnc8[nH]cc(C(=O)c9c(F)ccc(NS(=O)(=O)N%10CC[C@@H](F)C%10)c9F)c8c7)cc6)CC5)C4)ccc3C2=O)C(=O)N1` (stereo partly drawn) [Compound 14, (3R)-N-(2,4-difluoro-3-{5-[4-(4-{[(2s,4s)-2-{[2-(2,6-dioxopiperidin-3-yl)-1-oxo-2,3-dihydro-1H-isoindol-5-yl]oxy}-8-oxa-5-azaspiro[3.5]nonan-5-yl]methyl}piperidin-1-yl)phenyl]-1H-pyrrolo[2,3-b]pyridine-3-carbonyl}phenyl)-3-fluoropyrrolidine-1-sulfonamide], on BRAF V600E, the DC50 is greater than 500 nM and the greatest degradation seen (Dmax) lay within 35 to 70%. Besides, the Dmax on BRAF G466V is less than 35%.
For `O=C1CCC(N2Cc3cc(N4CC[C@@H]4COc4ccc(-c5cnc6[nH]cc(C(=O)c7c(F)ccc(NS(=O)(=O)N8CC[C@@H](F)C8)c7F)c6c5)cc4)ccc3C2=O)C(=O)N1` (stereo partly drawn) [Compound 15, (3R)-N-{3-[5-(4-{[(2R)-1-[2-(2,6-dioxopiperidin-3-yl)-1-oxo-2,3-dihydro-1H-isoindol-5-yl]azetidin-2-yl]methoxy}phenyl)-1H-pyrrolo[2,3-b]pyridine-3-carbonyl]-2,4-difluorophenyl}-3-fluoropyrrolidine-1-sulfonamide], the half-maximal degradation concentration (DC50) at BRAF V600E was greater than 500 nM; on BRAF G466V, greater than 30 nM.
As for `O=C1CCC(N2Cc3cc(N4CCC(N5C[C@@H]6C[C@H]5CN(c5ccc(-c7cnc8[nH]cc(C(=O)c9c(F)ccc(NS(=O)(=O)N%10CC[C@@H](F)C%10)c9F)c8c7)cc5)C6)CC4)ccc3C2=O)C(=O)N1` (stereo partly drawn) [Compound 16, (3R)-N-[3-(5-{4-[(1S,5S)-6-{1-[2-(2,6-dioxopiperidin-3-yl)-1-oxo-2,3-dihydro-1H-isoindol-5-yl]piperidin-4-yl}-3,6-diazabicyclo[3.2.1]octan-3-yl]phenyl}-1H-pyrrolo[2,3-b]pyridine-3-carbonyl)-2,4-difluorophenyl]-3-fluoropyrrolidine-1-sulfonamide], on BRAF V600E, the DC50 was in the range of 50 to 500 nM and the Dmax lay in the range of 35 to 70%. Also, on BRAF G466V, the DC50 is 1 to 10 nM and the Dmax lay within 35 to 70%.
Take `O=C1CCC(N2Cc3cc(OC[C@@H]4CCN4c4ccc(-c5cnc6[nH]cc(C(=O)c7c(F)ccc(NS(=O)(=O)N8CC[C@@H](F)C8)c7F)c6c5)cc4)ccc3C2=O)C(=O)N1` (stereo partly drawn) [Compound 17, (3R)-N-[3-(5-{4-[(2S)-2-({[2-(2,6-dioxopiperidin-3-yl)-1-oxo-2,3-dihydro-1H-isoindol-5-yl]oxy}methyl)azetidin-1-yl]phenyl}-1H-pyrrolo[2,3-b]pyridine-3-carbonyl)-2,4-difluorophenyl]-3-fluoropyrrolidine-1-sulfonamide]: the DC50 on BRAF V600E was greater than 500 nM; on BRAF G466V, greater than 30 nM.

The values are drawn from patent US12180193B2, “Accelerating fibrosarcoma protein degrading compounds and associated methods of use” (Arvinas Operations, Inc., priority 2020, dated 2024).
